The test system of this assay is HBEC-F508del. In words: Transepithelial short-circuit anion current in HBEC-F508del, Example 3. Type of assay: cell-based, human. The procedure: Methods: Transepithelial short-circuit current and ^36Cl net flux (Jnet) were measured in differentiated HBEC-F508del bathed in vehicle (no AA), AA test formulation (CF5AA-3) or AA negative control (NC; CF4AA-3) in Ussing chambers. Cells were treated with C18 (VX809-analogue), VX661 or DMSO for 24 hours. After blocking ENaC with benzamil, chloride secretion was stimulated using GLPG1837 (VX770-analogue) with or without forskolin. CFTRinh-172, CaCCinh-A01 or bumetanide were added to distinguish CFTR-, TMEM16A- and NKCC1-sensitive chloride currents, respectively. Western blot was performed on HBEC-F508del membrane fractions to determine apical CFTR expression.

The text below walks through data of patent publication US12220400B2, “Amino acid compositions and methods for treating cystic fibrosis” (UNIVERSITY OF FLORIDA RESEARCH FOUNDATION, INCORPORATED, priority 2018, dated 2025).

With `CC(C)(CO)c1cc2cc(NC(=O)C3(c4ccc5c(c4)OC(F)(F)O5)CC3)c(F)cc2n1C[C@@H](O)CO` [VX661, tezacaftor], the basal anion current (corrector pretreatment 24 hours, cells bathed in vehicle (no AA)) stood at 1.5±0.2 μA. Under “forskolin and GLPG1837”, the “peak anion current after stimulation with forskolin and GLPG1837” value turned out to be 7.9±0.7 μA.
